According to US6743939B2, “Phenylheteroalkylamine derivatives” (AstraZeneca AB, priority 2000, dated 2004):

System: not given
Assay: not given
Settings: not given

melting point [°C] | SMILES
157 to 158 | N#Cc1ccc(Cl)cc1O[C@H](CCCN1CCCC1)c1ccccc1.O=C(O)C(=O)O [Example 3, 4-Chloro-2-[[(1R)-1-phenyl-4-(1-pyrrolidinyl)butyl]oxy]-benzonitrile ethanedioate]
188 to 189 | N#Cc1ccc(Cl)cc1O[C@H](CCCNCc1cccnc1)c1ccccc1.O=C(O)C(=O)O [Example 6, 4-Chloro-2-[[(1R)-1-phenyl-4-[(3-pyridinylmethyl)amino]butyl]oxy]-benzonitrile ethanedioate]
158 to 159 | N#Cc1ccc(Cl)cc1O[C@H](CCCNCCO)c1ccccc1.O=C(O)C(=O)O [Example 9, 4-Chloro-2-[[(1R)-4-[(2-hydroxyethyl)amino]-1-phenylbutyl]oxy]-benzonitrile ethanedioate]
173 to 174 | N#Cc1ccc(Cl)cc1O[C@H](CCCNC1CC1)c1ccccc1.O=C(O)C(=O)O [Example 10, 4-Chloro-2-[[(1R)-4-(cyclopropylamino)-1-phenylbutyl]oxy]-benzonitrile ethanedioate]
111 to 112 | N#Cc1ccc(Cl)cc1O[C@H](CCCNCCCO)c1ccccc1.O=C(O)C(=O)O [Example 11, 4-Chloro-2-[[(1R)-4-[(3-hydroxypropyl)amino]-1-phenylbutyl]oxy]-benzonitrile ethanedioate]
163 to 164 | C[C@H](CO)NCCC[C@@H](Oc1cc(Cl)ccc1C#N)c1ccccc1.O=C(O)C(=O)O [Example 12, 4-Chloro-2-[[(1R)-4-[[(1R)-2-hydroxy-1-methylethyl]amino]-1-phenylbutyl]oxy]-benzonitrile ethanedioate]
186 to 187 | C[C@@H](CO)NCCC[C@@H](Oc1cc(Cl)ccc1C#N)c1ccccc1.O=C(O)C(=O)O [Example 13, 4-Chloro-2-[[(1R)-4-[[(1S)-2-hydroxy-1-methylethyl]amino]-1-phenylbutyl]oxy]-benzonitrile ethanedioate]
160 to 162 | CNCC[C@@H](Cc1ccc(F)cc1)Oc1cc(Cl)ccc1Cl [Example 15, R-γ-(2,5-Dichlorophenoxy)-4-fluoro-N-methyl benzenebutanamine]
126 to 130 | CNCC[C@@H](Cc1ccc(C)cc1)Oc1cc(Cl)ccc1Cl.O=C(O)/C=C/C(=O)O [Example 17, R-γ-(2,5-Dichlorophenoxy)-N,4-dimethyl-benzenebutanamine fumarate]

More lines, now with the values behind:

SMILES | melting point [°C]
CCN(CCO)CCC[C@@H](Oc1cc(Cl)ccc1C#N)c1ccccc1.Cl | 141 to 144
CNCCC[C@@H](Oc1cc(Cl)ccc1C#N)c1ccccc1.O=C(O)C(=O)O [Example 1, 4-Chloro-2-[[(1R)-4-(methylamino)-1-phenylbutyl]oxy]benzonitrile ethanedioate] | 167 to 169
CNCC[C@@H](Cc1ccccc1)Oc1cc(Cl)ccc1Cl.O=C(O)C(=O)O [Example 2, R-γ-(2,5-Dichlorophenoxy)-N-methyl-benzenebutanamine ethanedioate] | 167 to 169
CNCCCC(Oc1cc(Cl)ccc1C#N)c1ccccn1.O=C(O)C(=O)O (stereo not shown) [Example 31, 4-Chloro-2-[4-(methylamino)-1-(2-pyridinyl)butoxy]benzonitrile oxalate] | 170 to 171
CNCCCC(Oc1cc(Cl)c(F)cc1C#N)c1ccccn1.O=C(O)C(=O)O (stereo not shown) [Example 32, 4-Chloro-5-fluoro-2-[4-(methylamino)-1-(2-pyridinyl)butoxy]benzonitrile oxalate] | 169 to 170
CNCCCC(Oc1cc(Cl)ccc1C#N)c1ccncc1.O=C(O)C(=O)O (stereo not shown) [Example 37, 4-Chloro-2-[4-(methylamino)-1-(4-pyridinyl)butoxy]benzonitrile oxalate] | 169 to 172

Target: T1, nitric oxide synthase (induced, from murine macrophage cell line J774A-1) (Mus musculus, UniProt P29477)
T1 construct: The reaction is started by adding 50 μl of cell lysate (prepared as above); endogenous in cells; host or cells: J774A-1 murine macrophage cell line, induced with LPS and IFN-gamma; crude cell lysate
Assay: Screen 1: nitric oxide synthase inhibition, 3H-L-arginine to 3H-L-citrulline conversion, lysate of induced J774A-1 cells
Assay type: biochemical
Settings: standard to verify the procedure, 1 hour at room temperature, read-out: IC50 (50% inhibitory concentration)
Experimental: The activity of compounds of formula (I), or a pharmaceutically acceptable salt, enantiomer or racemate thereof, may be screened for nitric oxide synthase inhibiting activity by a procedure based on that of Förstermann et al., Eur. J. Pharm., 1992, 225; 161-165. Nitric oxide synthase converts ^3H-L-arginine into ^3H-L-citrulline which can be separated by cation exchange chromatography and quantified by liquid scintillation counting.
Enzyme is prepared, after induction, from the cultured murine macrophage cell line J774A-1 (obtained from the laboratories of the Imperial Cancer Research Fund). J774A-1 cells are cultured in Dulbeccos Modified Eagles Medium (D[MEM) supplemented with 10% foetal bovine serum, 4 mM L-glutamine and antibiotics (100 units/ml penicillin G, […] streptomycin & […] amphotericin B). Cells are routinely grown in […] flasks containing 35 ml medium kept at 37° C. and in a humidified atmosphere containing 5% CO2. […]
Labelled L-citrulline is separated from labelled L-arginine using Dowex AG-50W. […] After allowing the samples to dry the L-citrulline is quantified by scintillation counting.
In a typical experiment basal activity is 300 dpm per 75 μl sample which is increased to 1900 dpm in the reagent controls. […] Compounds are tested at a range of concentrations and from the inhibitions obtained IC50 values are calculated. […]

SMILES | IC50 [µM]
N=C(N)NN [aminoguanidine] | 10
